Measurements taken from US20070141619A1, “DRUG RESISTANCE-ASSOCIATED GENE AND USE THEREOF” (BANYU PHARMACEUTICAL CO., Ltd., priority 2000, published 2007).

Legend:
[1] = test system: PC-13/ABCG2-2; experiment: SRB drug sensitivity, PC-13 transfected with ABCG2 (clone 2); format: cell-based, human; conditions: IC50 PC-13/ABCG2-2 divided by IC50 of vector cells
Description: (§1) Test cells in the logarithmic growth phase were dispensed into wells of 96-well plate at 1×10^3 cells/well. After subculture for 24 hours in a CO2 incubator, a serial diluted agent was added to each well. After further incubation for 72 hours, the cells were fixed with trichloroacetic acid (TCA) and the proteins in the cells were stained by 0.4% sulforhodamine B solution. The samples were eluted by 10 mM Tris-HCl for 1 hour, and each well was measured at 560 nm with a 450 nm reference, by a SPECTRAmax 250 plate reader (Molecular Devices Corp.).
(§2) PC-13 cells were transfected with the ABCG2 expression plasmids using Effectene Transfection Reagent (QIAGEN). The experiment was performed according to the attached procedural manual. As a control experiment, other PC-13 cells were transfected with vector alone without the ABCG2 sequence. The two experiments were conducted simultaneously. Two days after the transfection, the original media were replaced with selection media containing 0.2 mg/ml of Geneticin (GIBCO BRL). By culture for a long time under this condition, stable transfectant clones with the introduced plasmids were selected. Two weeks from the transfection, emerging colonies were picked and expression of ABCG2 in the cells was examined by Northern Blot analysis.

[2] = test system: ABCG2; experiment: as above; format: cell-based, human; conditions: human; PC-13/ABCG2-2; average ± standard error of three independent experiments
Description: as §1, §2

[3] = test system: PC-13 cell lines with introduced ABCG2; experiment: SRB drug sensitivity, PC-13 cell lines with introduced ABCG2 (stated jointly); format: cell-based, human; conditions: PC-13 cell lines with introduced ABCG2, versus vector alone
Description: as §1, §2

[4] = test system: PC13/NR13; experiment: SRB drug sensitivity, Compound-A-resistant PC-13/NR13; format: cell-based, human; conditions: for IC50: Homo sapiens, PC-13, PC13/NR13, SRB, 72 hours with agent; for RR: Relative Resistance: IC50 PC13/NR13 divided by IC50 PC13
[5] = test system: LY/NR1; experiment: SRB drug sensitivity, Compound-A-resistant LY/NR1; format: cell-based, mouse; conditions: for RR: Relative Resistance: IC50 LY/NR1 divided by IC50 LY; for IC50: Mus musculus, LY/NR1, SRB, 72 hours with agent
Source text: A colony that grew under these conditions was isolated using a cloning ring (Asahi Techno Glass Corporation) and designated as LY/NR1.

[6] = test system: PC13; experiment: SRB drug sensitivity, PC-13 parental cells; format: cell-based; conditions: Homo sapiens, 72 hours with agent
[7] = test system: PC-13/ABCG2-3; experiment: SRB drug sensitivity, PC-13 transfected with ABCG2 (clone 3); format: cell-based, human; conditions: IC50 PC-13/ABCG2-3 divided by IC50 of vector cells
Description: as §1, §2

[8] = test system: ABCG2; experiment: as above; format: cell-based, human; conditions: human; PC-13/ABCG2-3; average ± standard error of three independent experiments
Description: as §1, §2

[9] = test system: HCT116; experiment: SRB drug sensitivity, HCT116 parental cells; format: cell-based; conditions: Homo sapiens, HCT-116, 72 hours with agent
[10] = test system: LY; experiment: SRB drug sensitivity, LY parental fibroblasts; format: cell-based; conditions: Mus musculus, Fibroblast, 72 hours with agent
[11] = test system: HeLa#7; experiment: SRB drug sensitivity, spontaneously resistant HeLa#7; format: cell-based, human; conditions: for IC50: Homo sapiens, HeLa#7, SRB, 72 hours with agent; for RR: Relative Resistance: IC50 HeLa#7 divided by IC50 HeLaS3
[12] = test system: LY/NR2; experiment: SRB drug sensitivity, Compound-A-resistant LY/NR2; format: cell-based, mouse; conditions: for RR: Relative Resistance: IC50 LY/NR2 divided by IC50 LY; for IC50: Mus musculus, LY/NR2, SRB, 72 hours with agent
Source text: An emerging colony was isolated as described above and designated as LY/NR2.

[13] = test system: HeLaS3; experiment: SRB drug sensitivity, HeLaS3 (Compound-A-sensitive); format: cell-based; conditions: Homo sapiens, HeLa S3, 72 hours with agent
[14] = test system: PC-13/Vector; experiment: SRB drug sensitivity, PC-13 transfected with vector alone; format: cell-based; conditions: Homo sapiens, average ± standard error of three independent experiments
Description: as §1, §2

[15] = test system: HCT116/NR1; experiment: SRB drug sensitivity, Compound-A-resistant HCT116/NR1; format: cell-based, human; conditions: for IC50: Homo sapiens, HCT-116, HCT116/NR1, SRB, 72 hours with agent; for RR: Relative Resistance: IC50 HCT116/NR1 divided by IC50 HCT116
Source text: An emerging colony was isolated and designated as HCT116/NR1.

[16] = test system: MCF-7/R7; experiment: SRB drug sensitivity, MCF-7 with introduced ABCG2 of the present invention; format: cell-based, human; conditions: MCF-7/R7 (ABCG2 of the present invention), FIG. 6
Description: (§3) The full length human ABCG2 cDNA of the present invention prepared in Example 5 was inserted into a plasmid for expression in mammalian cells, followed by transfection of human breast cancer cells, MCF-7 cells, with the ABCG2 expression plasmid using Effectene Transfection Reagent (QIAGEN). Likewise, human breast cancer cells, MCF-7 cells, were transfected with a plasmid including the ABCG2-482T cDNA prepared in Example 10. The experiments were carried out according to an attached procedural manual. As a control experiment, the MCF-7 cells were also transfected with vector alone. The three experiments were conducted simultaneously. Two days from the transfection, the original media were replaced with selective media containing 900 μg/ml of Geneticin (GIBCO BRL). By culture over a prolonged term under this condition, stable transfectant clones with introduced plasmid were selected. Two to three weeks from the transfection, emerging colonies were picked and the expression of ABCG2 in the cells was examined by Northern Blot analysis. Northern Blot analysis was performed as described in Example 4: 8 μg of total RNA prepared from each clone using RNeasy mini kit (QIAGEN) was separated on a formaldehyde denatured agarose gel, followed by analysis using the human ABCG2 cDNA fragment of the present invention as a probe.
(§4) The drug sensitivity of the stable transfectant clones which were established from MCF-7 cells with introduced ABCG2- or ABCG2-482T-expression plasmid, was measured using SRB method as described in Example 2 and the sensitivity of each transfectant to drugs was shown as a relative resistance to the cells with introduced vector alone (FIG. 6).

[17] = test system: MCF-7/T8; experiment: SRB drug sensitivity, MCF-7 with introduced ABCG2-482T; format: cell-based, human; conditions: MCF-7/T8 (ABCG2-482T)
Description: as §3, §4

Structure (SMILES) | IC50 at 72 h [2] [µM] | IC50 at 72 h [8] [µM] | IC50 [11] [µM] | IC50 [13] [µM] | IC50 [15] [µM] | resistance of cells in which ABCG2 was forcedly expressed [3] | IC50 [4] [µM] | RR: Relative Resistance [4] | RR: Relative Resistance [5] | IC50 [5] [µM] | IC50 [6] [µM] | IC50 [9] [µM] | IC50 [10] [µM] | RR: Relative Resistance [11] | RR: Relative Resistance [12] | IC50 [12] [µM] | IC50 [14] [µM] | RR: Relative Resistance [15] | further results
CC[C@@]1(O)C(=O)OCc2c1cc1n(c2=O)Cc2cc3ccccc3nc2-1 [Camptothecin] | 0.029 ± 0.005 | 0.052 ± 0.008 | 0.038 | 0.014 | 0.017 | did not display remarkable resistance | 0.029 | 0.76 | 1.3 | 0.058 | 0.038 | 0.0094 | 0.046 | 2.7 | 8.2 | 0.38 | 0.043 ± 0.011 | 1.8 | Rel. Res. (relative resistance) [1]: 0.67; Rel. Res. (relative resistance) [7]: 1.2
COc1cccc2c1C(=O)c1c(O)c3c(c(O)c1C2=O)C[C@@](O)(C(C)=O)C[C@@H]3O[C@H]1C[C@H](N)[C@H](O)[C@H](C)O1 [Daunorubicin] | – | – | – | – | – | – | – | – | – | – | – | – | – | – | – | – | – | – | relative resistance to the cells with introduced vector alone [16]: no resistance; relative resistance to the cells with introduced vector alone ([17]; FIG. 6): 5.1 fold
COc1cc([C@@H]2c3cc4c(cc3[C@@H](O[C@@H]3O[C@@H]5CO[C@@H](C)O[C@H]5[C@H](O)[C@H]3O)[C@H]3COC(=O)[C@H]23)OCO4)cc(OC)c1O [Etoposide] | 0.46 ± 0.075 | 1.1 ± 0.33 | 0.93 | 1.2 | 3.4 | did not display remarkable resistance | 3 | 2.5 | 2.1 | 0.52 | 1.2 | 1.1 | 0.28 | 0.79 | 4.7 | 2 | 1 ± 0.29 | 3.1 | Rel. Res. (relative resistance) [1]: 0.46; Rel. Res. (relative resistance) [7]: 1.1

Now from value to compound, other results behind:

IC50 at 72 h [2] [µM] | IC50 at 72 h [8] [µM] | IC50 [11] [µM] | IC50 [13] [µM] | IC50 [15] [µM] | Structure (SMILES) | resistance of cells in which ABCG2 was forcedly expressed [3] | IC50 [4] [µM] | RR: Relative Resistance [4] | RR: Relative Resistance [5] | IC50 [5] [µM] | IC50 [6] [µM] | IC50 [9] [µM] | IC50 [10] [µM] | RR: Relative Resistance [11] | RR: Relative Resistance [12] | IC50 [12] [µM] | IC50 [14] [µM] | RR: Relative Resistance [15] | further results
– | – | 0.029 | 0.035 | 0.059 | COc1cccc2c1C(=O)c1c(O)c3c(c(O)c1C2=O)C[C@@](O)(C(=O)CO)C[C@@H]3O[C@H]1C[C@H](N)[C@H](O)[C@H](C)O1 [Doxorubicin] | not resistant | 0.07 | 2.5 | 1.6 | 0.067 | 0.028 | 0.025 | 0.043 | 0.81 | 4.5 | 0.19 | – | 2.3 | relative resistance to the cells with introduced vector alone [16]: no resistance; relative resistance to the cells with introduced vector alone ([17]; FIG. 6, listed as Adriamycin): 9.6 fold; relative resistance to the cells with introduced vector alone ([17]; FIG. 6, listed as adriamycin): showed resistance
– | – | 0.0042 | 0.001 | 0.0021 | CC(=O)O[C@H]1C(=O)[C@@]2(C)[C@H]([C@H](OC(=O)c3ccccc3)[C@]3(O)C[C@H](OC(=O)[C@H](O)[C@@H](NC(=O)c4ccccc4)c4ccccc4)C(C)=C1C3(C)C)[C@]1(OC(C)=O)CO[C@@H]1C[C@@H]2O [Paclitaxel] | – | 0.0018 | 0.92 | 1.4 | 0.057 | 0.002 | 0.0011 | 0.041 | 4.2 | 2.0 | 0.081 | – | 1.9 | –
0.19 ± 0.05 | 0.096 ± 0.022 | 0.36 | 0.063 | – | CC[C@@]1(O)C(=O)OCc2c1cc1n(c2=O)Cc2cc3c(CN(C)C)c(O)ccc3nc2-1 [Topotecan] | did not display remarkable resistance | 1.1 | – | – | 0.25 | 0.075 | 0.034 | 0.069 | – | – | 2.9 | 0.21 ± 0.04 | – | –
– | – | 0.0069 | 0.0007 | 0.0093 | CC[C@]1(O)C[C@H]2CN(CCc3c([nH]c4ccccc34)[C@@](C(=O)OC)(c3cc4c(cc3OC)N(C=O)[C@H]3[C@@](O)(C(=O)OC)[C@H](OC(C)=O)[C@]5(CC)C=CCN6CC[C@]43[C@@H]65)C2)C1 [Vincristine] | – | 0.007 | 0.56 | 0.77 | 0.011 | 0.013 | 0.002 | 0.015 | 9.9 | 1.7 | 0.025 | – | 4.7 | –
